# Results taken from patent US4046878A, “Daunomycin analogues, their preparation and use” (Societa' Farmaceutici Italia S.p.A., priority 1974, dated 1977).
# Where two headings read alike, the source gives them in different places.
# Experiments:
# [1] = test system: L 1210 leukemia cells; test: Leukemia: survival of mice inoculated intraperitoneally with L 1210 leukemia cells; type: in vivo, BDF 1 mice; conditions: for Toxicity / % T/C (mean survival time) / Average Survival Time: once; for % T/C (mean survival time) / Average Survival Time: day after implantation; for Average Survival Time: control 8
# Experimental: The activity of the Test Compound was tested on BDF 1 mice inoculated intraperitoneally with 1×10^5 L 1210 leukemia cells/animal.
# The animals were treated once, the day after tumor implantation.
# (§1) *% T/C = (mean survival time of treated mice/mean survival time of contro
# [2] = test system: solid tumors; test: Solid tumors: tumor weight in mice grafted subcutaneously with fragments of neoplastic tissue; conditions: for Toxicity / % T/C (mean tumor weight) / Tumor Weight: five days; for Tumor Weight: control 3.036, in g (unit assumed); for therapeutic index (T.I.): Maximum Tolerated dose (LD 10)/Minimum effective dose (T/C 0.10)
# Experimental: In vivo tests on the activity of the Test Compound as compared with adriamycin on solid tumors were carried out on groups of ten Swiss CD 1 mice subcutaneously grafted with fragments of neoplastic tissue and treated intravenously with the respective antibiotics for five days starting form the day following the tumor implantation.
# On the tenth day, all the test animals were sacrificed and their tumors removed and weighed.
# *The therapeutic index (T.I) is expressed as the ratio between the maximu
# tolerated dose (LD10) and the minimum effective dose, according to
# Skipper and Schmidt, Cancer Chemother, Rep. 17 : 1-128, 1962. The minimum
# effective dose indicates the dose which reduces by 90% the weight of
# tumors compared to controls : such 90% reduction correponds to a T/C valu
# **% T/C = (mean tumor weight of treated mice/mean tumor weight of control
# [3] = test system: mouse embryo fibroblast cultures; test: Cell proliferation in uninfected mouse embryo fibroblast cultures (cytotoxic activity); conditions: 3 days
# [4] = test system: Moloney Sarcoma Virus (MSV); test: Formation of foci by Moloney Sarcoma Virus in infected mouse embryo fibroblast cultures (antiviral activity); type: cell-based
# Excerpt: In vitro test on the formation of foci by Moloney Sarcoma Virus (MSV).
# [5] = test system: HeLa cells; test: Viability (colony formation) of HeLa cells in vitro; type: cell-based; conditions: for IC50: Homo sapiens, HeLa, colony numbers 6 days later
# Experimental: In vitro studies were carried out on HeLa cells, maintained in Eagle medium supplemented with 10% calf serum. The cells were treated with daunomycin, adriamycin* and the Test Compound for different periods of times. The cell viability was assessed by […] of 200-300 cells/plate. Colony numbers were evaluated 6 days later.
# [6] = test system: ascites sarcoma 180 cells; test: Ascitic tumors: survival of mice inoculated intraperitoneally with ascites sarcoma 180 cells; type: in vivo, mice (Swiss CD 1); conditions: i.p.
# Experimental: Tests were carried out on groups of 10 mice (Swiss CD 1) inoculated intraperitoneally with 1 × 10^6 ascites sarcoma 180 cells/animal. The animals were treated intraperitoneally with different concentrations of the Test Compound and adriamycin once a day following tumor implantation.
# as §1
# **The figures in parentheses indicate the number of longterm survivors,
# animals, one animal remained alive at the end of 60 days. (*) % T/C =
# [7] = Fibroblast, 72 h, read-out: % Foci (control = 100)
# [8] = read-out: ID 50, 2 hrs. treatment
# [9] = read-out: ID 50, 8 hrs. treatment
smiles,measurement,setting,value
"CC(=O)C1(O)Cc2c(O)c3c(c(O)c2C(O[C@H]2C[C@H](N)[C@H](O)[C@H](C)O2)C1)C(=O)c1ccccc1C3=O (mixture of isomers) [Test Compound, mixture of the α-anomers of (-)daunosaminyl(-)4-demethoxydaunomycinone and (-(daunosaminyl(+)4-demethoxydaunomycinone]",Toxicity,[1]; 0.75 mg/kg,0/10
same,% T/C (mean survival time),[1]; 0.75 mg/kg,156%
same,Average Survival Time,[1]; 0.75 mg/kg,12.5
same,Toxicity,[1]; 1.5 mg/kg,1/10
same,% T/C (mean survival time),[1]; 1.5 mg/kg,162%
same,Average Survival Time,[1]; 1.5 mg/kg,13
same,Toxicity,[1]; 3 mg/kg,7/10
same,% T/C (mean survival time),[1]; 3 mg/kg,87%
same,Average Survival Time,[1]; 3 mg/kg,7
same,"average survival time of treated animals, in words",[1]; non toxic doses tested,increased considerably
same,"active dose relative to adriamycin, in words",[1]; single treatment,active at lower doses than adriamycin
same,Toxicity,[2]; 0.5 mg/kg i.v.,0/10
same,% T/C (mean tumor weight),"[2]; 0.5 mg/kg i.v., tenth day",76%
same,Tumor Weight,"[2]; 0.5 mg/kg i.v., tenth day",2.295
same,Toxicity,[2]; 1 mg/kg i.v.,0/10
same,% T/C (mean tumor weight),"[2]; 1 mg/kg i.v., tenth day",51%
same,Tumor Weight,"[2]; 1 mg/kg i.v., tenth day",1.550
same,inhibition of the tumor growth,"[2]; 1 mg/kg i.v., higher non toxic dose tested, tenth day",50%
same,Toxicity,[2]; 2 mg/kg i.v.,3/10
same,% T/C (mean tumor weight),"[2]; 2 mg/kg i.v., tenth day",16%
same,Tumor Weight,"[2]; 2 mg/kg i.v., tenth day",0.485
same,therapeutic index (T.I.),[2],3.7
same,"cytotoxic activity, in words",[3],the same cytotoxic activity as adriamycin
same,"antiviral activity (MSV foci formation), in words",[4]; 3 days,lesser antiviral activity than adriamycin
same,activity at 0.006 µg/mL,"[4]; Fibroblast, 72 h, 0.006 γ/ml, 3 days, read-out: % Foci (control = 100)",54%
same,activity at 0.025 µg/mL,"[4]; Fibroblast, 72 h, 0.0250 γ/ml, 3 days, read-out: % Foci (control = 100)",12%
same,activity at 0.1 µg/mL,"[4]; Fibroblast, 72 h, 0.1 γ/ml, 3 days, read-out: % Foci (control = 100)",0%
same,activity at 0.6 µg/mL,"[4]; Fibroblast, 72 h, 0.6 γ/ml, 3 days, read-out: % Foci (control = 100)",0%
same,"activity on HeLa cell viability, in words",[5]; 2 hours of treatment,as active as adriamycin
same,"inhibition of cell viability, in words",[5]; 8 hours of treatment,higher than the inhibition by either adriamycin or daunomycin
same,IC50,"[5]; 2 hrs. treatment, read-out: ID 50 (the source's name)",0.2 µg/mL
same,IC50,"[5]; 8 hrs. treatment, read-out: ID 50 (the source's name)",0.002 µg/mL
same,"% T/C, average survival time","[6]; Experiment 1, 1 mg/kg day",185%
same,"number of longterm survivors, i.e., after 60 days","[6]; Experiment 1, 1 mg/kg day",0/10
same,"% T/C, average survival time","[6]; Experiment 1, 2 mg/kg day",61%
same,"number of longterm survivors, i.e., after 60 days","[6]; Experiment 1, 2 mg/kg day",1/10
same,"% T/C, average survival time","[6]; Experiment 1, 5 mg/kg day",38%
same,"number of longterm survivors, i.e., after 60 days","[6]; Experiment 1, 5 mg/kg day",0/10
same,"% T/C, average survival time","[6]; Experiment 2, 0.2 mg/kg day",146%
same,"number of longterm survivors, i.e., after 60 days","[6]; Experiment 2, 0.2 mg/kg day",0/10
same,"% T/C, average survival time","[6]; Experiment 2, 1 mg/kg day",107%
same,"number of longterm survivors, i.e., after 60 days","[6]; Experiment 2, 1 mg/kg day",0/10
same,"% T/C, average survival time","[6]; Experiment 2, 1.5 mg/kg day",79%
same,"number of longterm survivors, i.e., after 60 days","[6]; Experiment 2, 1.5 mg/kg day",0/10
same,"% T/C, average survival time","[6]; Experiment 3, 0.12 mg/kg day",115%
same,"number of longterm survivors, i.e., after 60 days","[6]; Experiment 3, 0.12 mg/kg day",0/10
same,"% T/C, average survival time","[6]; Experiment 3, 0.25 mg/kg day",188%
same,"number of longterm survivors, i.e., after 60 days","[6]; Experiment 3, 0.25 mg/kg day",1/10
same,"% T/C, average survival time","[6]; Experiment 3, 0.5 mg/kg day",181%
same,"number of longterm survivors, i.e., after 60 days","[6]; Experiment 3, 0.5 mg/kg day",0/10
same,"% T/C, average survival time","[6]; Experiment 3, 1 mg/kg day",223%
same,"number of longterm survivors, i.e., after 60 days","[6]; Experiment 3, 1 mg/kg day",1/10
same,"active dose relative to adriamycin, in words",[6]; once a day,active at lower doses than adriamycin
same,"effect on ascitic tumor growth, in words",[6]; once a day,remarkable effect on ascitic tumor growth
"COc1cccc2c1C(=O)c1c(O)c3c(c(O)c1C2=O)C[C@@](O)(C(=O)CO)C[C@@H]3O[C@H]1C[C@H](N)[C@H](O)[C@H](C)O1 [Adriamycin, reference compound]",Toxicity,[1]; 2.5 mg/kg,0/10
same,% T/C (mean survival time),[1]; 2.5 mg/kg,156%
same,Average Survival Time,[1]; 2.5 mg/kg,12.5
same,Toxicity,[1]; 5 mg/kg,0/10
same,% T/C (mean survival time),[1]; 5 mg/kg,175%
same,Average Survival Time,[1]; 5 mg/kg,14
same,Toxicity,[1]; 10 mg/kg,4/10
same,% T/C (mean survival time),[1]; 10 mg/kg,200%
same,Average Survival Time,[1]; 10 mg/kg,16
same,Toxicity,[2]; 2.5 mg/kg i.v.,0/10
same,% T/C (mean tumor weight),"[2]; 2.5 mg/kg i.v., tenth day",48%
same,Tumor Weight,"[2]; 2.5 mg/kg i.v., tenth day",1.465
same,Toxicity,[2]; 3.5 mg/kg i.v.,7/10
same,% T/C (mean tumor weight),"[2]; 3.5 mg/kg i.v., tenth day",12%
same,Tumor Weight,"[2]; 3.5 mg/kg i.v., tenth day",0.364
same,therapeutic index (T.I.),[2],1.8
same,activity at 0.006 µg/mL,[4]; [7],26%
same,activity at 0.0125 µg/mL,[4]; [7],0%
same,activity at 0.025 µg/mL,[4]; [7],0%
same,IC50,[5]; [8],0.2 µg/mL
same,IC50,[5]; [9],0.039 µg/mL
same,"% T/C, average survival time","[6]; Experiment 1, 1 mg/kg day",146%
same,"number of longterm survivors, i.e., after 60 days","[6]; Experiment 1, 1 mg/kg day",1/9
same,"% T/C, average survival time","[6]; Experiment 1, 2 mg/kg day",400%
same,"number of longterm survivors, i.e., after 60 days","[6]; Experiment 1, 2 mg/kg day",5/10
same,"% T/C, average survival time","[6]; Experiment 1, 5 mg/kg day",311%
same,"number of longterm survivors, i.e., after 60 days","[6]; Experiment 1, 5 mg/kg day",4/10
same,"% T/C, average survival time","[6]; Experiment 2, 0.2 mg/kg day",107%
same,"number of longterm survivors, i.e., after 60 days","[6]; Experiment 2, 0.2 mg/kg day",0/10
same,"% T/C, average survival time","[6]; Experiment 2, 1 mg/kg day",143%
same,"number of longterm survivors, i.e., after 60 days","[6]; Experiment 2, 1 mg/kg day",1/10
same,"% T/C, average survival time","[6]; Experiment 2, 5 mg/kg day",225%
same,"number of longterm survivors, i.e., after 60 days","[6]; Experiment 2, 5 mg/kg day",1/10
same,"% T/C, average survival time","[6]; Experiment 2, 10 mg/kg day",193%
same,"number of longterm survivors, i.e., after 60 days","[6]; Experiment 2, 10 mg/kg day",0/10
same,"% T/C, average survival time","[6]; Experiment 3, 0.1 mg/kg day",100%
same,"number of longterm survivors, i.e., after 60 days","[6]; Experiment 3, 0.1 mg/kg day",0/10
same,"% T/C, average survival time","[6]; Experiment 3, 1 mg/kg day",169%
same,"number of longterm survivors, i.e., after 60 days","[6]; Experiment 3, 1 mg/kg day",1/9
COc1cccc2c1C(=O)c1c(O)c3c(c(O)c1C2=O)C[C@@](O)(C(C)=O)C[C@@H]3O[C@H]1C[C@H](N)[C@H](O)[C@H](C)O1 [Daunomycin],IC50,[5]; [8],0.095 µg/mL
same,IC50,[5]; [9],0.023 µg/mL
